{"source": "patent US8772297B2", "about": "“TGF-β signal transduction inhibitor” (Kyoto University, priority 2010, dated 2014)", "key": {"ARPE-19 cells": {"tested_on": "ARPE-19 cells", "test": "Evaluation of TGF-β-induced epithelial-mesenchymal transition (EMT) inhibitory activity", "type": "cell-based", "conditions": "human TGF-β2 10 ng/mL and human TNF 10 ng/mL, 2 days, Giemsa stain, FIG. 1", "method": "Human retinal pigment epithelial cells (ARPE-19 cells) were seeded in a 96 well plate at a concentration of 1.2×10^4 cells/well, and cultured overnight (5% CO2, 37° C.) in DMEM/F12 medium containing 10% fetal bovine serum, penicillin (100 U/mL), streptomycin (100 μg/mL) and Hepes (10 mM). The next day, the medium was changed to a serum-free medium, and a test compound was added. After 1 hr, the cells were stimulated with human TGF-β2 (10 ng/mL) and human TNF (10 ng/mL). After culture for 2 days, the cells were stained with Giemsa, and the influence of the compound on the formation of cell aggregates was evaluated."}, "liver Kupffer cells": {"tested_on": "liver Kupffer cells", "test": "Influence on activation of liver Kupffer cells in primary culture system", "type": "cell-based", "conditions": "rat primary culture, 7 days", "method": "Wistar rat (bred under SPF, male, 15-week-old) was subjected to laparotomy under pentobarbital anesthesia, a catheter was inserted into the portal vein, and perfusion was performed successively with a washing solution for hemorrhage, a 0.06% pronase solution (manufactured by Carbiochem), and a 0.03% collagenase (manufactured by Wako Pure Chemical Industries, Ltd.) solution. Then, the liver was isolated and incubated in a liver Kupffer cell separation buffer containing 0.057% pronase and 0.057% collagenase, and supplemented with 2 mg/mL DNaseI (1 mL, manufactured by Roche Diagnostics) in a warm bath at 36° C. for 30 min. During this period, the pH of the lysate was maintained at 7.2-7.4 with 1N NaOH. Then, the hepatic tissue digestive product was filtered through a mesh, a liver Kupffer cell separation buffer was added to the obtained filtrate to the total amount of 150 mL. The mixture was dispensed to three 50-mL polypropylene tubes, and centrifuged at 4° C., 2000 rpm for 8 min. […]\nOn the other hand, respective cells were washed with phosphate buffer (PBS: phosphate buffered saline) 7 days later, and fixed with 4% para-formaldehyde at room temperature for 10 min. […] Then, the cells were washed with PBST, and the α smooth muscle actin (αSMA) expression level was observed under a fluorescence microscope."}, "[1]": {"tested_on": "mouse bile duct ligation induced hepatic fibrosis model", "test": "Anti-fibrillization action in mouse bile duct ligation induced hepatic fibrosis model (BDL model)", "type": "in vivo", "conditions": "ICR mice, tail vein once a day for 14 days, qPCR vs GAPDH, FIG. 4", "method": "Hepatopathy caused by accumulation of bile in the liver and therewith associated liver fibrillization are induced by ligating the bile duct of mouse. The effect of the test compound on the hepatopathy and liver fibrillization associated therewith was evaluated. […]\nmRNA was extracted from the hepatic tissue preserved in RNALater by using an RNA purification kit RNeasy Micro Kit (manufactured by QIAGEN), and the RNA concentration was determined using a spectrophotometer (Nano Drop). […] Using SYBR® Premix EX Taq™ (manufactured by TAKARA), a reaction mixture was prepared according to the package insert, qPCR reaction was performed using respective primers for αSMA and the internal standard GAPDH (manufactured by Invitrogen), and the mRNA expression level was quantified."}}, "data": [{"smiles": "CN(C)c1ccc(NS(=O)(=O)c2cccc(S(=O)(=O)NCC3CCN(C(=O)OC(C)(C)C)CC3)c2)cc1-c1ccco1", "note": "[Y244, 4-{[3-(4-dimethylamino-3-furan-2-yl-phenylsulfamoyl)benzenesulfonylamino]methyl}piperidine-1-carboxylic acid tert-butyl ester]", "values": [{"measurement": "EMT induced by TGF-β (formation of cell aggregates)", "setting": "ARPE-19 cells", "result": "remarkably suppressed"}, {"measurement": "expression of α smooth muscle actin associated with the activation of liver Kupffer cells", "setting": "liver Kupffer cells; Cy3-labeled anti-αSMA antibody, fluorescence microscope, FIG. 3", "result": "remarkably suppressed"}, {"measurement": "cell morphology change caused by the activation of liver Kupffer cells", "setting": "liver Kupffer cells; bright field, FIG. 2", "result": "suppressed"}, {"measurement": "mRNA expression level of α smooth muscle actin in the liver tissue", "setting": "[1]", "result": "significantly suppressed"}]}]}
